Reference: patent publication US11572369B2, “Bicyclic pyridine compositions and methods of using the same for cancer therapy” (UNIVERSITY OF SOUTH CAROLINA, priority 2019, dated 2023)

Columns and labels:
Test in all cases: KINOMEscan
Assay type in all cases: binding
Settings in all cases: 2000 nM
ALK(C1156Y) = target: T1, ALK(C1156Y) (Homo sapiens, UniProt Q9UM73, C1156Y)
T1 construct: DNA label (qPCR read-out); purchased KINOMEscan scanMAX panel (DiscoveRx)

AMPK-alpha2 = target: T2, AMPK-alpha2 (Homo sapiens, UniProt P54646)
T2 construct: DNA label (qPCR read-out); purchased KINOMEscan scanMAX panel (DiscoveRx)

AURKC = target: T3, AURKC (Homo sapiens, UniProt Q9UQB9)
T3 construct: DNA label (qPCR read-out); purchased KINOMEscan scanMAX panel (DiscoveRx)

BLK = target: T4, BLK (Homo sapiens, UniProt P51451)
T4 construct: DNA label (for qPCR read-out); purchased KINOMEscan scanMAX panel (DiscoveRx)

CAMKK1 = target: T5, CAMKK1 (Homo sapiens, UniProt Q8N5S9)
T5 construct: DNA label (qPCR read-out); purchased KINOMEscan (ScanMAX panel service)

CDK4-cyclinD3 = target: T6, CDK4-cyclinD3 (Homo sapiens, UniProt P11802)
T6 construct: purchased DiscoverX (KINOMEscan service)

CDK5 = target: T7, CDK5 (Homo sapiens, UniProt Q00535)
T7 construct: purchased DiscoverX (KINOMEscan service)

CSNK2A1 = target: T8, CSNK2A1 (Homo sapiens, UniProt P68400)
T8 construct: DNA label; purchased DiscoveRx (KINOMEscan scanMAX panel)

ERK5 = target: T9, ERK5 (Homo sapiens, UniProt Q13164)
T9 construct: DNA label (qPCR read-out); purchased DiscoveRx (KINOMEscan ScanMAX panel)

FGFR3(G697C) = target: T10, FGFR3(G697C) (Homo sapiens, UniProt P22607, G697C)
T10 construct: purchased DiscoveRx (KINOMEscan scanMAX panel)

GRK7 = target: T11, GRK7 (Homo sapiens, UniProt Q8WTQ7)
T11 construct: DNA label (for qPCR read-out); purchased DiscoveRx (KINOMEscan scanMAX panel, contract assay)

IKK-epsilon = target: T12, IKK-epsilon (Homo sapiens, UniProt Q14164)
T12 construct: DNA label (qPCR read-out); purchased KINOMEscan (DiscoveRx) ScanMAX panel

[1] = target: T13, JAK1(JH2domain-pseudokinase) (Homo sapiens, UniProt P23458)
T13 construct: JAK1(JH2domain-pseudokinase); DNA label (for qPCR read-out); purchased DiscoveRx (KINOMEscan scanMAX panel)

[2] = target: T14, JAK3(JH1domain-catalytic) (Homo sapiens, UniProt P52333)
T14 construct: JAK3(JH1domain-catalytic); DNA label (for qPCR read-out); purchased DiscoveRx (KINOMEscan scanMAX panel)

MAP3K15 = target: T15, MAP3K15 (Homo sapiens, UniProt Q6ZN16)
T15 construct: DNA label (qPCR read-out); purchased DiscoverX (KINOMEscan service)

MERTK = target: T16, MERTK (Homo sapiens, UniProt Q12866)
T16 construct: purchased DiscoveRx (KINOMEscan scanMAX panel, service)

MST1R = target: T17, MST1R (Homo sapiens, UniProt Q04912)
T17 construct: DNA label (qPCR read-out); purchased KINOMEscan scanMAX panel (DiscoveRx)

MST4 = target: T18, MST4 (Homo sapiens, UniProt Q9P289)
T18 construct: DNA label (for qPCR read-out); purchased KINOMEscan scanMAX panel (DiscoveRx)

NEK4 = target: T19, NEK4 (Homo sapiens, UniProt P51957)
T19 construct: DNA label (qPCR read-out); purchased KINOMEscan (ScanMAX panel service)

NEK6 = target: T20, NEK6 (Homo sapiens, UniProt Q9HC98)
T20 construct: DNA label (qPCR read-out); purchased KINOMEscan (ScanMAX panel service)

p38-beta = target: T21, p38-beta (Homo sapiens, UniProt Q15759)
T21 construct: purchased DiscoverX (KINOMEscan service)

PHKG1 = target: T22, PHKG1 (Homo sapiens, UniProt Q16816)
T22 construct: DNA label (for qPCR read-out); purchased DiscoveRx (KINOMEscan scanMAX service)

PIK3C2B = target: T23, PIK3C2B (Homo sapiens, UniProt O00750)
T23 construct: DNA label (for qPCR read-out); purchased DiscoveRx (KINOMEscan scanMAX service)

PIK3CB = target: T24, PIK3CB (Homo sapiens, UniProt P42338)
T24 construct: DNA label; purchased DiscoveRx (KINOMEscan scanMAX panel)

PIK3CG = target: T25, PIK3CG (Homo sapiens, UniProt P48736)
T25 construct: DNA label; purchased DiscoveRx (KINOMEscan scanMAX panel)

PIK4CB = target: T26, PIK4CB (Homo sapiens, UniProt Q9UBF8)
T26 construct: DNA label; purchased DiscoveRx (KINOMEscan scanMAX panel)

PRKCE = target: T27, PRKCE (Homo sapiens, UniProt Q02156)
T27 construct: purchased DiscoveRx (KINOMEscan scanMAX panel)

PRKR = target: T28, PRKR (Homo sapiens, UniProt P19525)
T28 construct: purchased DiscoveRx (KINOMEscan scanMAX panel)

PRKX = target: T29, PRKX (Homo sapiens, UniProt P51817)
T29 construct: purchased DiscoveRx (KINOMEscan scanMAX panel)

RIPK1 = target: T30, RIPK1 (Homo sapiens, UniProt Q13546)
T30 construct: DNA label (qPCR read-out); purchased DiscoveRx (KINOMEscan ScanMAX panel)

STK16 = target: T31, STK16 (Homo sapiens, UniProt O75716)
T31 construct: DNA label (for qPCR read-out); purchased DiscoveRx (KINOMEscan scanMAX panel, contract assay)

STK36 = target: T32, STK36 (Homo sapiens, UniProt Q9NRP7)
T32 construct: DNA label (for qPCR read-out); purchased DiscoveRx (KINOMEscan scanMAX panel, contract assay)

TXK = target: T33, TXK (Homo sapiens, UniProt P42681)
T33 construct: DNA label (for qPCR read-out); purchased DiscoveRx (KINOMEscan scanMAX panel)

WEE2 = target: T34, WEE2 (Homo sapiens, UniProt P0C1S8)
T34 construct: purchased KINOMEscan (DiscoveRx) panel service

WNK2 = target: T35, WNK2 (Homo sapiens, UniProt Q9Y3S1)
T35 construct: purchased KINOMEscan (DiscoveRx) panel service
T35 sequence (Q9Y3S1 whole entry): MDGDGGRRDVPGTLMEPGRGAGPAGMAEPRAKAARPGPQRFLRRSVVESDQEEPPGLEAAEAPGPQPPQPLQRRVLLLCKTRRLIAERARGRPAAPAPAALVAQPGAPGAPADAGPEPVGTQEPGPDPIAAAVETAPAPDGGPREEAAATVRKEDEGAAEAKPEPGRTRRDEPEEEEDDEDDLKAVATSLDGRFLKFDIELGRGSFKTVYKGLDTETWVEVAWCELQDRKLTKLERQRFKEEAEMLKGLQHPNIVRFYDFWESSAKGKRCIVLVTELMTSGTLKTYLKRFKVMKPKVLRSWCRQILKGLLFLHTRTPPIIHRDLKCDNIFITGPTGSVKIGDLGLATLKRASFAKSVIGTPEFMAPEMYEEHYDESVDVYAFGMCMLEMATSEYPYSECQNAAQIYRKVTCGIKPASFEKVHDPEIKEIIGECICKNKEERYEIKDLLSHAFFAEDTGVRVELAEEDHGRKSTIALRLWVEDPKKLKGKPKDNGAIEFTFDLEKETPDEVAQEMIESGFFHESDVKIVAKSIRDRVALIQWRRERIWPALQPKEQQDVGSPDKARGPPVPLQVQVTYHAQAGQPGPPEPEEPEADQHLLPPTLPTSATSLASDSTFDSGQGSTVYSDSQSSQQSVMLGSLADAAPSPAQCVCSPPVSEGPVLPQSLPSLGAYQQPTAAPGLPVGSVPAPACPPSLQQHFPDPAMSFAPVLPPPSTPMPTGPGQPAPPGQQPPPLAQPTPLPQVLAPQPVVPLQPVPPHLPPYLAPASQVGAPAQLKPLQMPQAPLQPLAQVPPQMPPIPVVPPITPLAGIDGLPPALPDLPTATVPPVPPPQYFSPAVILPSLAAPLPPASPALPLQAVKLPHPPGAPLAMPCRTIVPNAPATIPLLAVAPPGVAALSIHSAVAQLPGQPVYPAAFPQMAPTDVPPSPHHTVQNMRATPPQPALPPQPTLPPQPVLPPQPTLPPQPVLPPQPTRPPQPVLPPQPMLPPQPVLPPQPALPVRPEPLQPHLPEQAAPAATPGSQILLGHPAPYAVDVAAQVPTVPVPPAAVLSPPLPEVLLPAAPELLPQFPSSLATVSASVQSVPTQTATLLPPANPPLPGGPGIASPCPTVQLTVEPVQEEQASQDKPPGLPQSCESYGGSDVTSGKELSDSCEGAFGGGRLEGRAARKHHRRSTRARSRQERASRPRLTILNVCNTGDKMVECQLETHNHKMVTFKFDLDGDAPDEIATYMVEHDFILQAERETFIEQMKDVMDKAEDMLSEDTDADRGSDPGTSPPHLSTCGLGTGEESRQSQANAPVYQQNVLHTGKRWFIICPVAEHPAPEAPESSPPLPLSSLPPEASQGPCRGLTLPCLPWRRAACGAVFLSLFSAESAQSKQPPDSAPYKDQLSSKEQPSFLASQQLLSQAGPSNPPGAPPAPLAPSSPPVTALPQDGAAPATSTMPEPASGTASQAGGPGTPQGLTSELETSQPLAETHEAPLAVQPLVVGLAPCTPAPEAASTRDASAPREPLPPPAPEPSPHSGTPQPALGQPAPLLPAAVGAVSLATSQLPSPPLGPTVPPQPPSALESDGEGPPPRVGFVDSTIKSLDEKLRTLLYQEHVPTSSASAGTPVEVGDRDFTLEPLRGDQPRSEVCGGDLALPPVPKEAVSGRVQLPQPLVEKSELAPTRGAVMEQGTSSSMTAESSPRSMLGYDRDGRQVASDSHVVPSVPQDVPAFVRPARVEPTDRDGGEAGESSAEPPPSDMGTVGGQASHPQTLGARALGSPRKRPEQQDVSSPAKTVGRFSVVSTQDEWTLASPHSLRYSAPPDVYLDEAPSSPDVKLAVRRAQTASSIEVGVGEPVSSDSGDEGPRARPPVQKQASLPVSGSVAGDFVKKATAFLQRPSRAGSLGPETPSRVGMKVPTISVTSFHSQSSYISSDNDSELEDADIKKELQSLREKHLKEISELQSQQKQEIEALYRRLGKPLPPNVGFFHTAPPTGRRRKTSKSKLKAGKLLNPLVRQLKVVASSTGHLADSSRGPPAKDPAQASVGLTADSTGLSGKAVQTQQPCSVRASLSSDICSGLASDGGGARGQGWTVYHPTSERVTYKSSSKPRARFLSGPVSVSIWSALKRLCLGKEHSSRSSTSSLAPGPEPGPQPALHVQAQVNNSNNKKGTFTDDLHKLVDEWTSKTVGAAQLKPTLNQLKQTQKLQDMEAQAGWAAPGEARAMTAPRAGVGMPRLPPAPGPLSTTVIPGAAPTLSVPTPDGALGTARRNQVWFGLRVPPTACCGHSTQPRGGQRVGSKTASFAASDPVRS

T17 sequence (Q04912 25-1400): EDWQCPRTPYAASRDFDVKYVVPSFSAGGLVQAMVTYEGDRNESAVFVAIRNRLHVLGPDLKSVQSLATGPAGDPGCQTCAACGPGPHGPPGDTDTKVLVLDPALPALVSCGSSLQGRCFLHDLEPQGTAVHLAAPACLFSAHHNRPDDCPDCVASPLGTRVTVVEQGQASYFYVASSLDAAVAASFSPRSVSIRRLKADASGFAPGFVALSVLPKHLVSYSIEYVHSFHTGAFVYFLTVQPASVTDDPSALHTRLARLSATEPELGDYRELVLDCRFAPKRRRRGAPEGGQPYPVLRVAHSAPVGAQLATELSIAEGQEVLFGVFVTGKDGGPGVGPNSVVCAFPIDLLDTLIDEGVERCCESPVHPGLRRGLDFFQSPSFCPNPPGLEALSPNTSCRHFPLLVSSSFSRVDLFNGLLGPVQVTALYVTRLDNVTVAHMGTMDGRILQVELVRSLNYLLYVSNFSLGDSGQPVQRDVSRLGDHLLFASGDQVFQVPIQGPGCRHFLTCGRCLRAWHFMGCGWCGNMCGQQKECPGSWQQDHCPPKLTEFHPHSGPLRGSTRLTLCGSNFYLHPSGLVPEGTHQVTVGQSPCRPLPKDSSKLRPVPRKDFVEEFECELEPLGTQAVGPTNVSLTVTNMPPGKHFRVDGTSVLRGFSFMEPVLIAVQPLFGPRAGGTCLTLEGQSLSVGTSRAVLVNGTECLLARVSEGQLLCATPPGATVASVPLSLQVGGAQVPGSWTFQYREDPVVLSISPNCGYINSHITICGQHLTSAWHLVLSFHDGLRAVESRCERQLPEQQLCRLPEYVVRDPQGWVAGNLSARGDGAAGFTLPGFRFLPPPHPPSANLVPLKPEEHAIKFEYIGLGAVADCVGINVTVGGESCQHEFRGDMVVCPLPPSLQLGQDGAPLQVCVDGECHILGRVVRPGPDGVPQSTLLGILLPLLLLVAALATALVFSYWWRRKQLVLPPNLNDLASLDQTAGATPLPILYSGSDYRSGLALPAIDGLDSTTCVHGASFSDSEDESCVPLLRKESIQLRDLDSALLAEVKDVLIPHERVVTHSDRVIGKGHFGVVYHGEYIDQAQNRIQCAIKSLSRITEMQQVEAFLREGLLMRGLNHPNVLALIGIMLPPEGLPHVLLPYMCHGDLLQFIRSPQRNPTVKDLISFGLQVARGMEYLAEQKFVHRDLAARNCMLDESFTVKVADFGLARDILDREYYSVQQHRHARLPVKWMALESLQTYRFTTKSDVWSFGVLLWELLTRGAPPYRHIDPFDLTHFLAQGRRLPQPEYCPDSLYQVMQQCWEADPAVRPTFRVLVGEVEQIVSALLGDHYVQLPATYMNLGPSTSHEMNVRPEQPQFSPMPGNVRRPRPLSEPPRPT
T20 sequence (Q9HC98 whole entry): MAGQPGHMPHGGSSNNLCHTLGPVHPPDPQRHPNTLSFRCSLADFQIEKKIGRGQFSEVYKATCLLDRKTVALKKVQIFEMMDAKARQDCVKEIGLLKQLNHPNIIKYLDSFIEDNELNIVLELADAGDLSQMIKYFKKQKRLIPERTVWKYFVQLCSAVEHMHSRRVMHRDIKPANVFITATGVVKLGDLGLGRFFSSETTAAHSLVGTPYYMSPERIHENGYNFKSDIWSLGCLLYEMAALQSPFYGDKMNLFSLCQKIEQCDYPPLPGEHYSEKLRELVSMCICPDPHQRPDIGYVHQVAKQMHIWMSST
T25 sequence (P48736 whole entry): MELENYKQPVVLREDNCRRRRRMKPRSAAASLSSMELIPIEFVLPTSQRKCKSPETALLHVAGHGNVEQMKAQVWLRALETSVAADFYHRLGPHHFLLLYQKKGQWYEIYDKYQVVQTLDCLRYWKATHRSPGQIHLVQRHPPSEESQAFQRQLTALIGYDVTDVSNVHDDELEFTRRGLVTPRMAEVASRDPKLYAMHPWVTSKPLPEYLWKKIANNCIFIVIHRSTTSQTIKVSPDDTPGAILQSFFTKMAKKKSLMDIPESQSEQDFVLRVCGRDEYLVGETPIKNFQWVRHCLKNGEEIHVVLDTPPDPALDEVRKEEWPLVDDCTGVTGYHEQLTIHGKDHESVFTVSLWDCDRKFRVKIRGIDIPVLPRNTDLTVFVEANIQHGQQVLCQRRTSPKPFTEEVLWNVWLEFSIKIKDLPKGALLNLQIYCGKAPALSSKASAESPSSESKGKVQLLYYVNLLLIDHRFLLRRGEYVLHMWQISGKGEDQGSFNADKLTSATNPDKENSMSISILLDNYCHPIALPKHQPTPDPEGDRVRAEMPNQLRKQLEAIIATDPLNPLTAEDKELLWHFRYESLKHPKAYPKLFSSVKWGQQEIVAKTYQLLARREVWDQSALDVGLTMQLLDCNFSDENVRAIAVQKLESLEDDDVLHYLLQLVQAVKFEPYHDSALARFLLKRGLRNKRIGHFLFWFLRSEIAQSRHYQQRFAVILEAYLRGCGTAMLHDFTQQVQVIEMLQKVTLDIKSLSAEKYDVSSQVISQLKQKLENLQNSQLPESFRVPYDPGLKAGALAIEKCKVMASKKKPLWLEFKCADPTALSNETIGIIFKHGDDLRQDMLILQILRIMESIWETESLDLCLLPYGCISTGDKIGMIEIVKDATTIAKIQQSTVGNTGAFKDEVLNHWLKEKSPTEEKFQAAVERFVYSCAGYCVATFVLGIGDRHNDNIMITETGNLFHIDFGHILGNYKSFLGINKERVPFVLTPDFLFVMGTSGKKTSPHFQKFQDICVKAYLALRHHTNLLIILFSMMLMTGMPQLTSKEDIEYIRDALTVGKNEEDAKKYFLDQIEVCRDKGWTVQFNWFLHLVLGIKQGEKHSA

| Compound | % Ctrl (ALK(C1156Y)) | % Ctrl (AMPK-alpha2) | % Ctrl (AURKC) | % Ctrl (BLK) | % Ctrl (CAMKK1) | % Ctrl (CDK4-cyclinD3) | % Ctrl (CDK5) | % Ctrl (CSNK2A1) | % Ctrl (ERK5) | % Ctrl (FGFR3(G697C)) | % Ctrl (GRK7) | % Ctrl (IKK-epsilon) | % Ctrl [1] | % Ctrl [2] | % Ctrl (MAP3K15) | % Ctrl (MERTK) | % Ctrl (MST1R) | % Ctrl (MST4) | % Ctrl (NEK4) | % Ctrl (NEK6) | other results |
| --- | --- | --- | --- | --- | --- | --- | --- | --- | --- | --- | --- | --- | --- | --- | --- | --- | --- | --- | --- | --- | --- |
| CN(C)C(=O)c1ccc(N2CCCN(c3ccnc4sc(C(N)=O)c(N)c34)CC2)cc1 [15u, 3-amino-4-(4-(4-(dimethylcarbamoyl)phenyl)-1,4-diazepan-1-yl)thieno[2,3-b]pyridine-2-carboxamide] | 100 % Ctrl | 80 % Ctrl | 100 % Ctrl | 100 % Ctrl | 96 % Ctrl | 95 % Ctrl | 84 % Ctrl | 100 % Ctrl | 59 % Ctrl | 95 % Ctrl | 100 % Ctrl | 100 % Ctrl | 89 % Ctrl | 83 % Ctrl | 97 % Ctrl | 89 % Ctrl | 97 % Ctrl | 95 % Ctrl | 100 % Ctrl | 92 % Ctrl | % Ctrl (p38-beta): 100 % Ctrl; % Ctrl (PHKG1): 94 % Ctrl; % Ctrl (PIK3C2B): 89 % Ctrl; % Ctrl (PIK3CB): 100 % Ctrl; % Ctrl (PIK3CG): 79 % Ctrl; % Ctrl (PIK4CB): 65 % Ctrl; % Ctrl (PRKCE): 93 % Ctrl; % Ctrl (PRKR): 100 % Ctrl; % Ctrl (PRKX): 94 % Ctrl; % Ctrl (RIPK1): 99 % Ctrl; % Ctrl (STK16): 80 % Ctrl; % Ctrl (STK36): 100 % Ctrl; % Ctrl (TXK): 93 % Ctrl; % Ctrl (WEE2): 97 % Ctrl; % Ctrl (WNK2): 96 % Ctrl |
| [2H]C([2H])([2H])N(C(=O)c1ccc(N2CCCN(c3ccnc4sc(C(N)=O)c(N)c34)CC2)cc1)C([2H])([2H])[2H] [15u_D6, 3-amino-4-(4-(4-(bis(methyl-d3)carbamoyl)phenyl)-1,4-diazepan-1-yl)thieno[2,3-b]pyridine-2-carboxamide] | 78 % Ctrl | 95 % Ctrl | 100 % Ctrl | 92 % Ctrl | 100 % Ctrl | 97 % Ctrl | 94 % Ctrl | 59 % Ctrl | 98 % Ctrl | 100 % Ctrl | 92 % Ctrl | 100 % Ctrl | 89 % Ctrl | 80 % Ctrl | 92 % Ctrl | 100 % Ctrl | 99 % Ctrl | 89 % Ctrl | 95 % Ctrl | 100 % Ctrl | % Ctrl (p38-beta): 97 % Ctrl; % Ctrl (PHKG1): 97 % Ctrl; % Ctrl (PIK3C2B): 87 % Ctrl; % Ctrl (PIK3CB): 95 % Ctrl; % Ctrl (PIK3CG): 76 % Ctrl; % Ctrl (PIK4CB): 33 % Ctrl; % Ctrl (PRKCE): 97 % Ctrl; % Ctrl (PRKR): 100 % Ctrl; % Ctrl (PRKX): 95 % Ctrl; % Ctrl (RIPK1): 100 % Ctrl; % Ctrl (STK16): 87 % Ctrl; % Ctrl (STK36): 100 % Ctrl; % Ctrl (TXK): 100 % Ctrl; % Ctrl (WEE2): 88 % Ctrl; % Ctrl (WNK2): 94 % Ctrl |
